Assay [1] addresses T1, nanoFAST (Halorhodospira halophila, UniProt P16113, C69G/Y94W/T95M/F96I/D97P/Y98T/Q99S/M100R).
T1 construct: gene pyp; nanoFAST: FAST lacking the first 26 residues (98 amino acids); engineered variant of PYP
T1 sequence (P16113 27-125 C69G/Y94W/T95M/F96I/D97P/Y98T/Q99S/M100R): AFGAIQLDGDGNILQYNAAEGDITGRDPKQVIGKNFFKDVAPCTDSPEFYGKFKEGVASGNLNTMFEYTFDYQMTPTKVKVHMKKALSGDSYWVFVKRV
Nature of the assay: solution NMR structure of the complex, […] intermolecular NOE distances. The format is binding. The settings on record: cited from earlier work.

The target in assay [2] is T1, nanoFAST. Nature of the assay: fluorescence titration; weak binding, seen only at […] protein.
Another assay has as its target T2, FAST (Halorhodospira halophila, UniProt P16113, C69G/D97P/F96I/M100R/Q99S/T95M/Y94W/Y98T).
T2 construct: gene pyp; full-length FAST (engineered variant of PYP)
Nature of the assay: spectrofluorometric titration (Table S1). It is filed as binding.

T2 sequence (P16113 whole entry C69G/Y94W/T95M/F96I/D97P/Y98T/Q99S/M100R): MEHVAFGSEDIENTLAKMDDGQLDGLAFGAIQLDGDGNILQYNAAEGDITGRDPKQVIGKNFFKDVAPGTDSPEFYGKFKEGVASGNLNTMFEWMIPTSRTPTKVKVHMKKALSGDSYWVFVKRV

On to `COc1cc(/C=C2\SC(=S)NC2=O)c(OC)cc1O` [HBR-DOM2], for which the Kd on nanoFAST [1] was 850 nM. On to `COc1cc(O)ccc1/C=C1N=C(/C=C/c2ccncc2)N(C)C\1=O` [N871b], for which the “fluorescence titration; weak binding, seen only at ~100 μM protein” value at nanoFAST [2] was “N871b is bright when bound to nanoFAST, but its binding affinity is extremely weak”. In the case of `COc1cc(/C=C2\N=C(C)N(C)C2=O)c(OC)cc1O` [N1036], on FAST, the affinity, expressed as Kd, was 710 nM.

Regarding `COc1cc(/C=C2N=C(/C=C/c3ccncc3)N(C)C\2=O)c(OC)cc1O` [N1048], the dissociation constant (Kd) at FAST was 150 nM.

For orientation: Kd means the concentration at which binding is half-saturated.

These data come from publication PMC9570328, “Spatial Structure of NanoFAST in the Apo State and in Complex with its Fluorogen HBR-DOM2” (International Journal of Molecular Sciences, 2022).
